Values joined by “and” are separate entries in the source; they are usually repeats but may differ in a detail not shown here. Equal entries are not always repeated.
T1: PaoD (Escherichia coli, UniProt P77183)
T1 construct: full length, expressed from plasmid pMN87 in E. coli BL21(DE3), Ni-TED purified (tag not described); dimer in solution
T1 sequence (P77183 1-318): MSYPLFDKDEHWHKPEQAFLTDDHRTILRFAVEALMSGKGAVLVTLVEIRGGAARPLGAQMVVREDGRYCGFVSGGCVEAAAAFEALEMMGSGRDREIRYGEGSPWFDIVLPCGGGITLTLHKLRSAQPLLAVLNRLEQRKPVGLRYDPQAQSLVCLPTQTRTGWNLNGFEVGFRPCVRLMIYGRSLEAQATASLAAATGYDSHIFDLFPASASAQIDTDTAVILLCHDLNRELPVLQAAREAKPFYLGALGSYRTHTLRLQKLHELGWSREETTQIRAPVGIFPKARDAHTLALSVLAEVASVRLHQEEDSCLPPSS


What was measured:
PaoD [1] = target: T1, PaoD; test: ultrafiltration, bound cofactor oxidized to Form A, HPLC fluorescence; assay type: binding; conditions: 12 µM PaoD, 0-48 µM cofactor, 100 mM Tris-HCl, 300 mM NaCl, pH 7.2, 277 K
PaoD [2] = target: T1, PaoD; test: STD-NMR; assay type: binding; conditions: ca 30 µM PaoD, 3 mM ionic liquid, 50 mM Tris-HCl, 1 mM EDTA, 300 mM NaCl, pH 8.0, 310 K; signals from cation ring protons; weak surface interaction
[3] = target: the molecule itself; test: SEC; freshly purified PaoD on Superdex 75 HR10/30, 50 mM Tris-HCl, 300 mM NaCl, pH 8.0, 283 K, 0.5 mL/min; column calibrated with Bio-Rad standards

Molecule	STD-NMR (PaoD [2])	other results
Nc1nc2c(c(=O)[nH]1)N[C@H]1C(S)=C(S)[C@@H](COP(=O)(O)O)O[C@H]1N2 [MPT]	–	ultrafiltration, bound cofactor oxidized to Form A, HPLC fluorescence (PaoD [1]): The obtained chromatograms showed that Mo-MPT and MPT was bound to PaoD
C[n+]1ccn(CCO)c1 [[C2OHmim]PF6]	aromatic protons of the cation were detected both for [C2OHmim]PF6 and [C4mim]Cl	–
CCCC[n+]1ccn(C)c1 [[C4mim]Cl]	aromatic protons of the cation were detected both for [C2OHmim]PF6 and [C4mim]Cl	–
PaoD (natural protein, Escherichia coli, UniProt P77183 1-318, looked up, PaoD, XdhC-like molecular chaperone of the periplasmic aldehyde oxidoreductase PaoABC, last gene of the paoABCD operon of Escherichia coli; calculated mass 34.8 kDa; the tag is inferred from the Ni-TED column and imidazole elution; also called molecular chaperone PaoD; E. coli PaoD; source: E. coli BL21(DE3), plasmid pMN87, purified (Ni-TED chromatography)) MSYPLFDKDEHWHKPEQAFLTDDHRTILRFAVEALMSGKGAVLVTLVEIRGGAARPLGAQMVVREDGRYCGFVSGGCVEAAAAFEALEMMGSGRDREIRYGEGSPWFDIVLPCGGGITLTLHKLRSAQPLLAVLNRLEQRKPVGLRYDPQAQSLVCLPTQTRTGWNLNGFEVGFRPCVRLMIYGRSLEAQATASLAAATGYDSHIFDLFPASASAQIDTDTAVILLCHDLNRELPVLQAAREAKPFYLGALGSYRTHTLRLQKLHELGWSREETTQIRAPVGIFPKARDAHTLALSVLAEVASVRLHQEEDSCLPPSS	–	stoichiometry N [3]: 2 and 4

Source: PMC3909100, “Biochemical, Stabilization and Crystallization Studies on a Molecular Chaperone (PaoD) Involved in the Maturation of Molybdoenzymes” (PLoS ONE, 2014)
